This passage reports IC50 results from BindingDB's records for doi:10.7270/Q21V5H4F (n/a, 1992).

The experiment addresses HIV-1 RT (reverse transcriptase). The experiment in a line: Inhibitory concentration against HIV-1 RT was determined.

Each structure is given as a SMILES string. pIC50: −log10 of the molar value.

Consider `O=C(C[C@H]1C(=O)Nc2ccccc2-c2cccn21)OCc1ccccc1`, for which the pIC50 is 6.94.

Broadly, the pIC50 is −log10 of the IC50, conventionally taken in molar units. High values mean a small IC50, low ones a large IC50.
